Article PMC7932537, “Quantitative profiling of protease specificity” (PLoS Computational Biology, 2021)

Columns and labels:
MMP-9 [1] = test: N-terminomic (TMT) analysis of MMP-treated HEK293 secretome: isotopic enrichment of novel N-termini; assay type: biochemical, human; conditions: for isotopic enrichment (log2(ratio)) (acc.to MMP9): HEK293 proteins; for isotopic enrichment (log2(ratio)): MMP9 cleavages in HEK293 cell proteins, determined by LC-MS/MS, log2(ratio) range (>3σ, 2σ-3σ, 1σ-2σ)
Description: (§1) This was done to achieve a reasonable compromise between the false positive and false negative rates based on the statistical model developed by the authors. […] (See Methods for details).
(§2) HEK293 cells were seeded in 150-mm tissue culture dishes (Corning) and grown to confluence. The confluent cultures were washed with PBS several times to remove serum proteins and kept in serum-free DMEM supplemented with 1 μM GM6001 for 72 hours at 37 C, 5% CO2. The conditioned media was centrifuged at 10,000 x g for 30 minutes at 4 C and concentrated ~100-fold using Centricon Plus-70 (AMD Millipore) 3-kDa m.w. cut-off ultrafilter, and the buffer was exchanged to 50 mM HEPES pH 7.0 containing 150 mM NaCl and 10 mM CaCl2 (Reaction Buffer) using a PD-10 desalting column (GE Healthcare). Aliquots containing 240 μg total protein were incubated at 37 C in the presence of 750 nM MMP2 or 9 or the Reaction Buffer alone for 2 hours. Each reaction was carried out in duplicate. The reactions were stopped by addition of 20 mM EDTA and subjected to denaturation/reduction (4M Urea and 10 mM TCEP, 1 h, 22°C) and alkylation (20 mM iodoacetamide, 30 min, 22°C, in dark). […] The TMT-labeled samples were pooled together, and subjected to TCA precipitation (20% TCA, 16 h, 4°C). Each pellet was washed with -20°C acetone, recovered in 50 mM Tris-HCl pH 8.0, and then digested with trypsin/Lys-C (Promega) for 16 h at 37°C. Digestions were stopped with 0.2% TFA and centrifuged to remove insoluble material. The supernatants were then desalted using Sep-Pak C18 cartridge (50 mg), and then lyophilized.
(§3) Dried pooled sample was reconstituted in 20 mM ammonium formate pH ~10 and fractionated using a Waters Acquity BEH C18 column (2.1x 15 cm, 1.7 μm pore size) mounted on an M-Class Ultra Performance Liquid Chromatography (UPLC) system (Waters). […] A total of 32 fractions were collected and pooled in a non-contiguous manner into 16 total fractions. Pooled fractions were dried to completeness in a SpeedVac concentrator prior to mass spectrometry analysis.
(§4) Dried peptide fractions were reconstituted with 2% ACN-0.1% FA and analyzed by LC-MS/MS using a Proxeon EASY nanoLC system (Thermo Fisher Scientific) coupled to a Q-Exactive Plus mass spectrometer (Thermo Fisher Scientific). […] The mass spectrometer was operated in positive data-dependent acquisition mode. MS1 spectra were measured with a resolution of 70,000 (AGC target: 1e6; mass range: 350–1700 m/z).
(§5) The false discovery rate (FDR) filter for spectrum and protein identification was set to 1%. Carbamidomethylation of cysteines was searched as a fixed modification, while oxidation of methionines and N-terminal acetylation were searched as variable modifications. Enzyme was set to trypsin in a semispecific mode and a maximum of two missed cleavages was allowed for searching. To obtain quantification of the TMT-labeled N-termini, two independent searches were performed–one with TMT10plex MS2 N-terminal reporter quantification and the other for quantification of N-terminal and lysine sidechain.

MMP-2 [2] = test: as above; assay type: biochemical, human; conditions: for isotopic enrichment (log2(ratio)): MMP2 cleavages in HEK293 cell proteins, determined by LC-MS/MS, novel N-termini, sections log2(ratio) >3σ, 2σ-3σ, 1σ-2σ, RP above 4.5
Description: as §1, §2, §3, §4, §5

MMP-9 [3] = molecular target: MMP-9 (Homo sapiens, UniProt P14780); test: K(obs) of individual phage substrates (set of 1369); assay type: biochemical; conditions: MMP9; individual phage substrate of the set of 1369 peptides; dash in sequence marks cleavage position
MMP-2 [4] = molecular target: T1, MMP-2 (Homo sapiens, UniProt P08253); test: as above; assay type: biochemical; conditions: MMP2; individual phage substrate from the set of 1369 peptides; hyphen in the sequence marks the cleavage position
T1 sequence (P08253 110-660): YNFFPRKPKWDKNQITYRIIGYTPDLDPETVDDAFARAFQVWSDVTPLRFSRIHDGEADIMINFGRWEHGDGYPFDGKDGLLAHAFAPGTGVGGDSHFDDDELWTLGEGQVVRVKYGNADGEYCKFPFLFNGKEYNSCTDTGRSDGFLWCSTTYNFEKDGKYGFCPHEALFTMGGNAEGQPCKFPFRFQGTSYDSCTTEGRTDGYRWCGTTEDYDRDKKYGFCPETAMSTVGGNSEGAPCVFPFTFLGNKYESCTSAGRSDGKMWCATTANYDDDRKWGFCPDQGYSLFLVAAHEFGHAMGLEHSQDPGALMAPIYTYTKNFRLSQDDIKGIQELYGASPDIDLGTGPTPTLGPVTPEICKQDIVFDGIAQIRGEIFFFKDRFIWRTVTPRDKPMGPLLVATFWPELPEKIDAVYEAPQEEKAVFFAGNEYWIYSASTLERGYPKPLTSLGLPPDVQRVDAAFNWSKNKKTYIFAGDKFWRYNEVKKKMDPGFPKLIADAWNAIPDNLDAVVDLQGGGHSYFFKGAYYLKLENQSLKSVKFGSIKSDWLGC

MMP-9 [5] = test: Substrate phage display with NGS: relative probability (RP) of P3-P1' tetramer clusters; assay type: biochemical, human; conditions: MMP9; RP of the substrate's P3-P1' tetramer, substrate phage display with NGS;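 note: ratio of tetramer probability after protease selection to that in naive phage library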
[6] = MMP9, common set of MMP2-9 selectome, LC-MS/MS
[7] = MMP2 cleaved HEK293 proteins, common set of MMP2-9 selectome, LC-MS/MS
[8] = MS detected cleavage sequence, common MMP2-9 selectome
[9] = MS detected cleavage sequence, HEK293 proteins, common MMP2-9 selectome

MMP-9 (Homo sapiens, UniProt P14780), sequence (P14780 94-707): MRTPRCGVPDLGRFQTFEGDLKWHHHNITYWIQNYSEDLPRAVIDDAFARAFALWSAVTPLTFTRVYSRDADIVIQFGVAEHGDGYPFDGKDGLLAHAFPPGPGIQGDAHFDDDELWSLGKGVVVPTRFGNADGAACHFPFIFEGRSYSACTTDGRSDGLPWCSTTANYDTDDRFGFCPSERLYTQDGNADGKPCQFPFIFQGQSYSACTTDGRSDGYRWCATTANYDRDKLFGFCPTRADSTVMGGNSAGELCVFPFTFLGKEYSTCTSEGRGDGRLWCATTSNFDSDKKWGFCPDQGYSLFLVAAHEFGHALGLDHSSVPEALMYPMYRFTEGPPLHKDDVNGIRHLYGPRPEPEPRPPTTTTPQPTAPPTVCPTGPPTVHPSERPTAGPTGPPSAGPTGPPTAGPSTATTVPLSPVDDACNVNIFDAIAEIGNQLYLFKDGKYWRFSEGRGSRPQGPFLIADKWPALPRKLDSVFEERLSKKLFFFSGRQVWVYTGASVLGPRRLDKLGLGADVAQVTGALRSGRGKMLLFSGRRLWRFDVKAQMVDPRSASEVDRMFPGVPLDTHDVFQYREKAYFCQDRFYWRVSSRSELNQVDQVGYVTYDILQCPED

Substance | isotopic enrichment (log2(ratio)) (acc.to MMP9) (MMP-9 [1]; [6]) | isotopic enrichment (log2(ratio)) (acc.to MMP2) (MMP-2 [2]; [7]) | isotopic enrichment (log2(ratio)) (MMP-9 [1]) | isotopic enrichment (log2(ratio)) (acc.to MMP9) (MMP-9 [1]; [8]) | isotopic enrichment (log2(ratio)) (acc.to MMP2) (MMP-2 [2]; [9]) | Kobs (MMP-9 [3]) [M⁻¹ s⁻¹] | Kobs (MMP-2 [4]) [M⁻¹ s⁻¹] | relative probability (RP) (MMP-9 [5]) | other results
ADIAF-LIDGSF | 0.8797 | 1.124 |  |  |  |  |  |  | isotopic enrichment (log2(ratio)) (MMP-2 [2]): 1.124 log2(ratio)
AGAAA-LSSASS | 3.911 | 2.491 | 3.911 | 3.911 log2(ratio) | 2.491 log2(ratio) |  |  |  | 
AGARG-IQGPQG |  |  | 1.521 | 1.521 log2(ratio) | 0.8156 log2(ratio) |  |  |  | 
APPAA-VAAVAG |  |  | 1.731 | 1.731 log2(ratio) | 2.4957 log2(ratio) |  |  |  | 
ARPNS-MVVEHP | 3.297 | 2.409 | 3.297 | 3.297 log2(ratio) | 2.409 log2(ratio) |  |  |  | 
DAPRA-VFPSIV | 1.811 | 1.669 | 1.811 | 1.811 log2(ratio) | 1.669 log2(ratio) |  |  |  | 
DMAAA-MKAVTE | 1.328 | 1.766 |  |  |  |  |  |  | isotopic enrichment (log2(ratio)) (MMP-2 [2]): 1.766 log2(ratio)
DMIDN-LLSPDL |  |  |  |  |  |  |  |  | isotopic enrichment (log2(ratio)) (acc.to MMP9) (MMP-9 [1]; MS detected cleavage sequence, unique part of MMP2 selectome): 1.029 log2(ratio); isotopic enrichment (log2(ratio)) (acc.to MMP2) (MMP-2 [2]; MS detected cleavage sequence, HEK293 proteins, unique part of MMP2 selectome): 1.245 log2(ratio)
EAPRP-YSKQVS | 1.531 | 1.239 | 1.531 | 1.531 log2(ratio) | 1.239 log2(ratio) |  |  |  | 
EEPLN-VGSVAA | 3.642 | 2.637 | 3.642 | 3.642 log2(ratio) | 2.637 log2(ratio) |  |  |  | 
EGPYS-ISVLYG | 0.9411 | 1.176 |  |  |  |  |  |  | isotopic enrichment (log2(ratio)) (MMP-2 [2]): 1.176 log2(ratio)
EHPVL-LTEAPL |  |  | 3.462 | 3.462 log2(ratio) | 1.599 log2(ratio) |  |  |  | 
ETAIN-ITTYPD | 2.536 | 1.84 | 2.536 | 2.536 log2(ratio) | 1.84 log2(ratio) |  |  |  | 
FHPEQ-LITGKE | 2.628 | 2.036 | 2.628 | 2.628 log2(ratio) | 2.036 log2(ratio) |  |  |  | 
FNPLS-LEELGS |  |  | 1.82 | 1.82 log2(ratio) | 0.84 log2(ratio) |  |  |  | 
WNPSY-LTASG |  |  |  |  |  | 8941.32 | 12792.1 | 40.8983 | 
WQVRY-LTASG |  |  |  |  |  | 12792.1 | 12792.1 | 32.3577 | 
WRPFS-YTASG |  |  |  |  |  | 12792.1 | 12792.1 | 43.4281 | 
WSPSS-YTASG |  |  |  |  |  | 3344.37 | 12792.1 | 41.6306 | 
WTPRG-NTASG |  |  |  |  |  | 2409.72 | 231.616 | 15.8425 | 
WYPSK-LTASG |  |  |  |  |  | 10866.7 | 12792.1 | 38.9571 | 
YASIR-TASGA |  |  |  |  |  | 2545.25 | 12792.1 | 0.562 | 
YGPRA-ITASG |  |  |  |  |  | 12792.1 | 12792.1 | 47.8426 | 
YGPSL-LTASG |  |  |  |  |  | 12792.1 | 12792.1 | 32.4935 | 
YHPIS-LTASG |  |  |  |  |  | 12792.1 | 12792.1 | 42.7806 | 
YIPLV-YTASG |  |  |  |  |  | 1239.69 | 0 | 9.417 | 
YIPTA-FTASG |  |  |  |  |  | 9740.44 | 12792.1 | 24.5969 | 
YKPVY-YTASG |  |  |  |  |  | 12792.1 | 12792.1 | 30.5191 | 
YSTLR-TASGA |  |  |  |  |  | 1239.69 | 12792.1 | 0 | 
